Source: the supplement of paper PMC4862054
Where “and” joins values, the source holds several entries; their conditions need not be identical. Equal entries are not always repeated.

Assays:
Conditions in all cases: incubation time: 72 h
[1] = test system: BT-474; assay: drug sensitivity score (DSS), CellTox Green (DSS (AUC-based score)); higher = stronger drug effect (viability inhibition or cytotoxicity); extreme values may be limits of the assay
How it was run: (§1)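 The drug sensitivity score reflects the area under a fitted dose-response curve. To obtain it, breast cancer cells in 20 µl suspension were seeded into 384-well plates containing compound at 5 concentrations, 10-fold apart over a compound-specific 10,000-fold range, and incubated 72 h. CellTox Green fluorescence (485/520 nm) was read first and CellTiter-Glo luminescence second, after 10 min at room temperature. Each plate was normalised to 0.1 % DMSO and a positive kill control.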

[2] = test system: BT-549; assay: as above
How it was run: as §1

[3] = test system: CAL-120; assay: as above
How it was run: as §1

[4] = test system: CAL-148; assay: as above
How it was run: as §1

[5] = test system: CAL-85-1; assay: as above
How it was run: as §1

[6] = test system: DU-4475; assay: as above
How it was run: as §1

[7] = test system: HCC1143; assay: as above
How it was run: as §1

[8] = test system: HCC1937; assay: as above
How it was run: as §1

[9] = test system: MDA-MB-231; assay: as above
How it was run: as §1

[10] = test system: MDA-MB-453; assay: as above
How it was run: as §1

[11] = test system: MFM-223; assay: as above
How it was run: as §1

[12] = test system: BT-474; assay: normalised viability (% of control), CellTiter-Blue; higher = more viable cells (about 100 = DMSO control)
Experimental: (§2)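 DSRT, CellTiter-Blue viability, 72 h incubation. Signal is normalised to DMSO and benzethonium chloride controls. Value is the normalised response at dose 3.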

[13] = test system: BT-549; assay: as above
Experimental: as §2

[14] = test system: CAL-120; assay: as above
Experimental: as §2

[15] = test system: CAL-148; assay: as above
Experimental: as §2

[16] = test system: CAL-51; assay: as above
Experimental: as §2

[17] = test system: CAL-85-1; assay: as above
Experimental: as §2

[18] = test system: DU-4475; assay: as above
Experimental: as §2

[19] = test system: HCC1143; assay: as above
Experimental: as §2

[20] = test system: HCC1599; assay: as above
Experimental: as §2

[21] = test system: HCC1937; assay: as above
Experimental: as §2

[22] = test system: HDQ-P1; assay: as above
Experimental: as §2

[23] = test system: Hs578T; assay: as above
Experimental: as §2

[24] = test system: MDA-MB-231; assay: as above
Experimental: as §2

[25] = test system: MDA-MB-436; assay: as above
Experimental: as §2

[26] = test system: MDA-MB-453; assay: as above
Experimental: as §2

[27] = test system: MDA-MB-468; assay: as above
Experimental: as §2

[28] = test system: MFM-223; assay: as above
Experimental: as §2

[29] = test system: SK-BR-3; assay: as above
Experimental: as §2

| Structure (SMILES) | drug sensitivity score [1] | drug sensitivity score [2] | drug sensitivity score [3] | drug sensitivity score [4] | drug sensitivity score [5] | drug sensitivity score [6] | drug sensitivity score [7] | drug sensitivity score [8] | drug sensitivity score [9] | drug sensitivity score [10] | drug sensitivity score [11] | normalised viability ([12]; 100 nM) | normalised viability ([13]; 100 nM) | normalised viability ([14]; 100 nM) | normalised viability ([15]; 10 nM) | normalised viability ([16]; 10 nM) | normalised viability ([17]; 10 nM) | normalised viability ([18]; 10 nM) | normalised viability ([19]; 100 nM) | normalised viability ([20]; 100 nM) | also measured |
| --- | --- | --- | --- | --- | --- | --- | --- | --- | --- | --- | --- | --- | --- | --- | --- | --- | --- | --- | --- | --- | --- |
| CC(C)n1nc(-c2ccc3oc(N)nc3c2)c2c(N)ncnc21 [INK128] | 0 | 0 | 0 | 8.35 | 0 | 0 | 0 | 0 | 0 | 0 | 3.35 |  |  |  |  |  |  |  |  |  |  |
| O=NN(CCCl)C(=O)NC1CCCCC1 [Lomustine] | 0 | 0 | 0 | 0 | 0 | 0 | 0 | 0 |  | 0 | 0 | 111% | 114% | 97% | 93.9% | 115% | 93.8% | 109% | 93.2% | 101% | normalised viability ([21]; 100 nM): 87.3%; normalised viability ([22]; 10 nM): 113%; normalised viability ([23]; 100 nM): 94.6%; normalised viability ([24]; 100 nM): 100%; normalised viability ([25]; 100 nM): 102%; normalised viability ([26]; 10 nM): 95.5%; normalised viability ([27]; 100 nM): 101%; normalised viability ([28]; 100 nM): 89.5%; normalised viability ([29]; 100 nM): 97.5% |
| O=C(O)CC[C@H]1CC[C@@](c2cc(F)ccc2F)(S(=O)(=O)c2ccc(Cl)cc2)CC1 [MK-0752] | 0 | 0 | 0 |  | 1.74 | 0 | 0 | 0 | 0 | 1.23 | 0 |  |  |  |  |  |  |  |  |  | normalised viability ([12]; 10 nM): 114%; normalised viability ([13]; 10 nM): 104%; normalised viability ([14]; 10 nM): 95.1%; normalised viability ([15]; 1 nM): 107%; normalised viability ([16]; 1 nM): 96.3%; normalised viability ([17]; 1 nM): 96%; normalised viability ([18]; 1 nM): 105%; normalised viability ([19]; 10 nM): 98%; normalised viability ([20]; 10 nM): 106%; normalised viability ([21]; 10 nM): 88.5%; normalised viability ([22]; 1 nM): 96.2%; normalised viability ([23]; 10 nM): 88.6%; normalised viability ([24]; 10 nM): 98%; normalised viability ([25]; 10 nM): 103%; normalised viability ([26]; 1 nM): 111%; normalised viability ([27]; 10 nM): 97.6%; normalised viability ([28]; 10 nM): 97.1%; normalised viability ([29]; 10 nM): 93.3% |
| Cc1c(C(=O)Nc2ccc(N3C[C@@H](C)O[C@@H](C)C3)nc2)cccc1-c1ccc(OC(F)(F)F)cc1 [NVP-LDE225] |  |  |  |  |  |  |  |  |  |  |  | 93.3% | 97% | 99.7% | 108% | 99.7% | 102% | 103% | 92.5% | 102% | normalised viability ([21]; 100 nM): 97.2%; normalised viability ([22]; 10 nM): 83.5%; normalised viability ([23]; 100 nM): 72.5%; normalised viability ([24]; 100 nM): 99%; normalised viability ([25]; 100 nM): 73.2%; normalised viability ([26]; 10 nM): 110%; normalised viability ([27]; 100 nM): 113%; normalised viability ([28]; 100 nM): 108%; normalised viability ([29]; 100 nM): 71.1% |
| CO[C@H](C(=O)[C@@H](O)[C@@H](C)O)[C@@H]1Cc2cc3cc(O[C@H]4C[C@@H](O[C@@H]5C[C@@H](O)[C@H](O)[C@@H](C)O5)[C@H](O)[C@@H](C)O4)c(C)c(O)c3c(O)c2C(=O)[C@H]1O[C@H]1C[C@@H](O[C@@H]2C[C@@H](O)[C@@H](O[C@@H]3C[C@](C)(O)[C@H](O)[C@@H](C)O3)[C@@H](C)O2)[C@H](O)[C@@H](C)O1 [Plicamycin] | 0 | 0 | 0 | 0 | 1.48 | 0 | 0 | 0 | 0 | 1.33 | 0 | 73.2% and 72.3% | 20.2% and 17% | 45% and 34.8% | 82.9% and 99.5% | 98.2% and 109% | 96.7% and 94.2% | 88.6% and 110% | 46% and 30.6% | 63% and 52.6% | normalised viability ([21]; 100 nM): 48.3% and 41.4%; normalised viability ([23]; 100 nM): 13% and 6.55%; normalised viability ([24]; 100 nM): 34.4% and 28.9%; normalised viability ([25]; 100 nM): 30.2% and 23.4%; normalised viability ([26]; 10 nM): 111% and 91.1%; normalised viability ([27]; 100 nM): 9.16% and 7.26%; normalised viability ([28]; 100 nM): 71.4% and 61.1%; normalised viability ([29]; 100 nM): 30.8% and 21.9% |
| CN1CCN(c2nc(C3=C(c4c[nH]c5ccccc45)C(=O)NC3=O)c3ccccc3n2)CC1 [Sotrastaurin] | 0 | 0 | 0 |  | 0 | 0 | 0 | 0 | 0 | 0 | 0 | 108% | 86.4% | 122% | 116% | 88.2% | 104% | 95% | 133% | 95% | normalised viability ([21]; 100 nM): 96.3%; normalised viability ([22]; 10 nM): 89.3%; normalised viability ([23]; 100 nM): 79.9%; normalised viability ([24]; 100 nM): 99.4%; normalised viability ([25]; 100 nM): 96.3%; normalised viability ([26]; 10 nM): 93.4%; normalised viability ([27]; 100 nM): 96.3%; normalised viability ([28]; 100 nM): 97.3%; normalised viability ([29]; 100 nM): 73% |
| CN1CCc2c(c3ccccc3n2Cc2ccc(C(=O)NO)cc2)C1 [Tubastatin A] | 0.156 | 0 | 0 | 0 | 0 | 0 | 10 | 0 | 2.06 | 0 | 0 |  |  |  |  |  |  |  |  |  |  |
